Assay results published in patent US11702422B2, “Imidazopyridazines as modulators of IL-17” (Janssen Pharmaceutica NV, priority 2020, dated 2023).

What was measured:
[1] = target: IL-17A(FLAG-Tagged): IL-17RA(His-Tagged) (Homo sapiens, UniProt Q16552, K93Q); assay: IL-17A(FLAG-Tagged): IL-17RA(His-Tagged) Binding Disruption Eu-HTRF Assay; conditions: IL-17A/IL-17RA binding disruption, simple average if tested more than once
Summary of the method: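 IC50 comes from a one-site competition fit of the HTRF 665/620 nm ratio. Compound dilutions (2-fold, 22 points) were held 1 h rt with FLAG-tagged IL-17A dimer, then His-tagged IL-17RA plus Eu-cryptate anti-FLAG and D2 anti-His antibodies were added for 2 h rt.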

[2] = tested on: IL-17A-induced G-CSF production in human normal keratinocyte (NHK); assay: NHK Assay: IL-17A-induced G-CSF production in human normal keratinocytes; format: cell-based; conditions: 24 h, adult normal human keratinocytes, IL-17A 5 ng/mL, simple average if tested more than once
Summary of the method: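 Titrated compound plus recombinant human IL-17A (pre-incubated 1 h, rt) were applied to adult human keratinocytes at 5 ng/mL cytokine, 0.2% DMSO. Cultures ran 24 h at 37° C, and supernatant G-CSF was measured by HTRF to derive IC50.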

UniProt Q16552, sequence (Q16552 with tags, fused parts or gaps K93Q): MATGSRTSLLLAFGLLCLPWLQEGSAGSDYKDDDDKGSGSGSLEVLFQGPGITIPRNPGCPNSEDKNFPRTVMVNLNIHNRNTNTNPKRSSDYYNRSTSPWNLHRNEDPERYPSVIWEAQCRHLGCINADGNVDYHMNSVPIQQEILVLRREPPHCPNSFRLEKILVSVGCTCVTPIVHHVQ

SMILES: O=C(CCC(F)(F)F)N[C@@H](c1cnn2cc([C@@H](NC(=O)c3cnn(CCF)n3)C3CCC(F)(F)CC3)nc2c1)C1CC1 [Example 107, N—((S)-(7-((R)-Cyclopropyl(4,4,4-trifluorobutanamido)methyl)imidazo[1,2-b]pyridazin-2-yl)(4,4-difluorocyclohexyl)methyl)-2-(2-fluoroethyl)-2H-1,2,3-triazole-4-carboxamide]
- IC50 [1]: 150 nM
- IC50 ([2]; Homo sapiens, Keratinocyte): 970 nM

SMILES: Cc1nonc1C(=O)N[C@H](c1cn2ncc(C(NC(=O)CC3CC(F)(F)C3)C3(C#N)CC3)cc2n1)C1CCC(F)(F)CC1 (single isomer, unassigned) [Example 423, N—((S)-(7-((S*)-(1-Cyanocyclopropyl)(2-(3,3-difluorocyclobutyl)acetamido)methyl)imidazo[1,2-b]pyridazin-2-yl)(4,4-difluorocyclohexyl)methyl)-4-methyl-1,2,5-oxadiazole-3-carboxamide]
- IC50 [1]: 78 nM
- IC50 ([2]; Homo sapiens, Keratinocyte): 130 nM

SMILES: N#CC1(C(NC(=O)CC2CC(F)(F)C2)c2cnn3cc([C@@H](NC(=O)c4nonc4C4CC4)C4CCC(F)(F)CC4)nc3c2)CC1 (single isomer, unassigned) [Example 429, N—((S)-(7-((R*)-(1-Cyanocyclopropyl)(2-(3,3-difluorocyclobutyl)acetamido)methyl)imidazo[1,2-b]pyridazin-2-yl)(4,4-difluorocyclohexyl)methyl)-4-cyclopropyl-1,2,5-oxadiazole-3-carboxamide]
- IC50 [1]: 2000 nM
- IC50 [2]: > 20000 nM

SMILES: CC(C)n1nccc1C(=O)N[C@H](c1cn2ncc([C@H](NC(=O)CC(C)(C)C(F)F)C3CC3)cc2n1)C1CCC(F)(F)CC1 [Example 313, N—((S)-(7-((R)-Cyclopropyl(4,4-difluoro-3,3-dimethylbutanamido)methyl)imidazo[1,2-b]pyridazin-2-yl)(4,4-difluorocyclohexyl)methyl)-1-isopropyl-1H-pyrazole-5-carboxamide]
- IC50 [1]: 160 nM
- IC50 ([2]; Homo sapiens, Keratinocyte): 480 nM

SMILES: CC(C)(F)c1nonc1C(=O)N[C@H](c1cn2ncc([C@H](NC(=O)CCC(F)(F)F)C3CC3)cc2n1)C1CCC(F)(F)CC1 [Example 388, N—((S)-(7-((R)-Cyclopropyl(4,4,4-trifluorobutanamido)methyl)imidazo[1,2-b]pyridazin-2-yl)(4,4-difluorocyclohexyl)methyl)-4-(2-fluoropropan-2-yl)-1,2,5-oxadiazole-3-carboxamide]
- IC50 [1]: 85 nM
- IC50 ([2]; Homo sapiens, Keratinocyte): 100 nM

SMILES: O=C(CCC(F)(F)F)N[C@@H](c1cnn2cc([C@@H](NC(=O)c3ccnc4c3CCC4)C3CCC(F)(F)CC3)nc2c1)C1CC1 [Example 191, N—((S)-(7-((R)-Cyclopropyl(4,4,4-trifluorobutanamido)methyl)imidazo[1,2-b]pyridazin-2-yl)(4,4-difluorocyclohexyl)methyl)-6,7-dihydro-5H-cyclopenta[b]pyridine-4-carboxamide]
- IC50 [1]: 290 nM
- IC50 ([2]; Homo sapiens, Keratinocyte): 1100 nM

SMILES: N#Cc1ccnc(C(=O)N[C@H](c2cn3ncc([C@H](NC(=O)CCC(F)(F)F)C4CC4)cc3n2)C2CCC(F)(F)CC2)c1 [Example 461, 4-Cyano-N—((S)-(7-((R)-cyclopropyl(4,4,4-trifluorobutanamido)methyl)imidazo[1,2-b]pyridazin-2-yl)(4,4-difluorocyclohexyl)methyl)picolinamide]
- IC50 [1]: 1600 nM
- IC50 ([2]; Homo sapiens, Keratinocyte): > 20000 nM

SMILES: CCc1ccccc1C(=O)N[C@H](c1cn2ncc([C@H](NC(=O)CCC(F)(F)F)C3CC3)cc2n1)C1CCC(F)(F)CC1 [Example 41, N—((S)-(7-((R)-Cyclopropyl(4,4,4-trifluorobutanamido)methyl)imidazo[1,2-b]pyridazin-2-yl)(4,4-difluorocyclohexyl)methyl)-2-ethylbenzamide]
- IC50 [1]: 350 nM
- IC50 ([2]; Homo sapiens, Keratinocyte): 2000 nM

SMILES: CCc1cnoc1C(=O)N[C@H](c1cn2ncc([C@H](NC(=O)CCC(F)(F)F)C3CC3)cc2n1)C1CCC(F)(F)CC1 [Example 470, N—((S)-(7-((R)-Cyclopropyl(4,4,4-trifluorobutanamido)methyl)imidazo[1,2-b]pyridazin-2-yl)(4,4-difluorocyclohexyl)methyl)-4-ethylisoxazole-5-carboxamide]
- IC50 [1]: 54 nM
- IC50 ([2]; Homo sapiens, Keratinocyte): 110 nM

SMILES: Cc1nonc1C(=O)N[C@H](c1cn2ncc([C@H](NC(=O)CC3CC(F)(F)C3)C3CC3)cc2n1)[C@@H]1C[C@@H]2[C@H](C1)C2(F)F (relative stereo) [Example 405, N—((S*)-(7-((R)-Cyclopropyl(2-(3,3-difluorocyclobutyl)acetamido)methyl)imidazo[1,2-b]pyridazin-2-yl)((1R,3s,5S)-6,6-difluorobicyclo[3.1.0]hexan-3-yl)methyl)-4-methyl-1,2,5-oxadiazole-3-carboxamide]
- IC50 [1]: 100 nM
- IC50 ([2]; Homo sapiens, Keratinocyte): 350 nM

SMILES: Cc1nonc1C(=O)N[C@H](c1cn2ncc(C(CC#N)NC(=O)CC3CC(F)(F)C3)cc2n1)C1CCC(F)(F)CC1 (single isomer, unassigned) [Example 446, N—((S)-(7-((R*)-2-Cyano-1-(2-(3,3-difluorocyclobutyl)acetamido)ethyl)imidazo[1,2-b]pyridazin-2-yl)(4,4-difluorocyclohexyl)methyl)-4-methyl-1,2,5-oxadiazole-3-carboxamide]
- IC50 [1]: 710 nM
- IC50 [2]: 8800 nM

SMILES: CC(C)C(NC(=O)CCC(F)(F)F)c1cnn2cc([C@@H](NC(=O)c3ccnn3C(C)C)C3CCC(F)(F)CC3)nc2c1 (single isomer, unassigned) [Example 155, N—((S)-(4,4-Difluorocyclohexyl)(7-((S*)-2-methyl-1-(4,4,4-trifluorobutanamido)propyl)imidazo[1,2-b]pyridazin-2-yl)methyl)-1-isopropyl-1H-pyrazole-5-carboxamide]
- IC50 [1]: 130 nM
- IC50 [2]: 53 nM

SMILES: O=C(CCC(F)(F)F)N[C@@H](c1cnn2cc([C@@H](NC(=O)c3nocc3OCCF)C3CCC(F)(F)CC3)nc2c1)C1CC1 [Example 376, N—((S)-(7-((R)-Cyclopropyl(4,4,4-trifluorobutanamido)methyl)imidazo[1,2-b]pyridazin-2-yl)(4,4-difluorocyclohexyl)methyl)-4-(2-fluoroethoxy)isoxazole-3-carboxamide]
- IC50 [1]: 79 nM
- IC50 ([2]; Homo sapiens, Keratinocyte): 280 nM

SMILES: COc1cc(C(=O)N[C@H](c2cn3ncc([C@H](NC(=O)CCC(F)(F)F)C4CC4)cc3n2)C2CCC(F)(F)CC2)ccn1 [Example 184, N—((S)-(7-((R)-Cyclopropyl(4,4,4-trifluorobutanamido)methyl)imidazo[1,2-b]pyridazin-2-yl)(4,4-difluorocyclohexyl)methyl)-2-methoxyisonicotinamide]
- IC50 [1]: 110 nM
- IC50 ([2]; Homo sapiens, Keratinocyte): 590 nM

SMILES: O=C(CCC(F)(F)F)N[C@@H](c1cnn2cc([C@@H](NC(=O)c3ccncn3)C3CCC(F)(F)CC3)nc2c1)C1CC1 [Example 207, N—((S)-(7-((R)-Cyclopropyl(4,4,4-trifluorobutanamido)methyl)imidazo[1,2-b]pyridazin-2-yl)(4,4-difluorocyclohexyl)methyl)pyrimidine-4-carboxamide]
- IC50 [1]: 1800 nM
- IC50 ([2]; Homo sapiens, Keratinocyte): 8400 nM

SMILES: Cc1noc(C(C)C)c1C(=O)N[C@H](c1cn2ncc([C@H](NC(=O)CCC(F)(F)F)C3CC3)cc2n1)C1CCC(F)(F)CC1 [Example 81, N—((S)-(7-((R)-Cyclopropyl(4,4,4-trifluorobutanamido)methyl)imidazo[1,2-b]pyridazin-2-yl)(4,4-difluorocyclohexyl)methyl)-5-isopropyl-3-methylisoxazole-4-carboxamide]
- IC50 [1]: 5600 nM
- IC50 ([2]; Homo sapiens, Keratinocyte): > 20000 nM

SMILES: O=C(CC12CC(F)(C1)C2)N[C@@H](c1cnn2cc([C@@H](NC(=O)c3nonc3C3CC3)C3CCC(F)(F)CC3)nc2c1)C1CC1 [Example 296, 4-Cyclopropyl-N—((S)-(7-((R)-cyclopropyl(2-(3-fluorobicyclo[1.1.1]pentan-1-yl)acetamido)methyl)imidazo[1,2-b]pyridazin-2-yl)(4,4-difluorocyclohexyl)methyl)-1,2,5-oxadiazole-3-carboxamide]
- IC50 [1]: 22 nM
- IC50 ([2]; Homo sapiens, Keratinocyte): 50 nM

SMILES: CC(C)c1ocnc1C(=O)N[C@H](c1cn2ncc([C@H](NC(=O)CCC(F)(F)F)C3CC3)cc2n1)C1CCC(F)(F)CC1 [Example 86, N—((S)-(7-((R)-Cyclopropyl(4,4,4-trifluorobutanamido)methyl)imidazo[1,2-b]pyridazin-2-yl)(4,4-difluorocyclohexyl)methyl)-5-isopropyloxazole-4-carboxamide]
- IC50 [1]: 210 nM
- IC50 ([2]; Homo sapiens, Keratinocyte): 350 nM

SMILES: O=C(CCC(F)(F)F)N[C@@H](c1cnn2cc([C@@H](NC(=O)c3ccncc3)C3CCC(F)(F)CC3)nc2c1)C1CC1 [Example 190, N—((S)-(7-((R)-Cyclopropyl(4,4,4-trifluorobutanamido)methyl)imidazo[1,2-b]pyridazin-2-yl)(4,4-difluorocyclohexyl)methyl)isonicotinamide]
- IC50 [1]: 220 nM
- IC50 ([2]; Homo sapiens, Keratinocyte): 820 nM

SMILES: CCC(F)(F)CC(=O)N[C@@H](c1cnn2cc([C@@H](NC(=O)c3nonc3C)C3CCC(F)(F)CC3)nc2c1)C1CC1 [Example 338, N—((S)-(7-((R)-Cyclopropyl(3,3-difluoropentanamido)methyl)imidazo[1,2-b]pyridazin-2-yl)(4,4-difluorocyclohexyl)methyl)-4-methyl-1,2,5-oxadiazole-3-carboxamide]
- IC50 [1]: 360 nM
- IC50 ([2]; Homo sapiens, Keratinocyte): 2000 nM

SMILES: O=C(CCC(F)(F)F)N[C@@H](c1cnn2cc([C@@H](NC(=O)c3ncnn3CCF)C3CCC(F)(F)CC3)nc2c1)C1CC1 [Example 57, N—((S)-(7-((R)-Cyclopropyl(4,4,4-trifluorobutanamido)methyl)imidazo[1,2-b]pyridazin-2-yl)(4,4-difluorocyclohexyl)methyl)-1-(2-fluoroethyl)-1H-1,2,4-triazole-5-carboxamide]
- IC50 [1]: 220 nM
- IC50 ([2]; Homo sapiens, Keratinocyte): 770 nM
